# According to patent publication US12491180B2, “Application of compound in treating pneumonia” (SHENZHEN OPTIMUM BIOLOGICAL TECHNOLOGY CO., LTD., priority 2019, dated 2025):
# Read-outs that look alike come from different tables or passages of the source.
# How the values were obtained:
# 16 clinical CRE strains = experiment: MIC50, MIC90 and MIC range against 16 clinical CRE strains; format: cell-based
# Experimental: (§1) The above-mentioned glycerol-preserved strains were taken out from the −80° C. refrigerator, streaked and inoculated on MHA plates, labeled, and cultured overnight in a 37° C. incubator.
# (§2) The inoculum was prepared directly from bacterial suspension, and several recovered colonies were picked and directly prepared into a bacterial suspension with a turbidity of No. 0.5 McFarland units in normal saline, and a 10-fold dilution was made during inoculation.
# (§3) 6 bottles of MHA culture medium 500 mL/bottle were prepared, and the pH was adjusted to 7.2-7.4, sterilized at 121° C. for 15 min, and the medium was placed in a 55° C. water bath to keep warm.
# (§4) Sterile blank petri dishes were taken, and marked with each FL drug/concentration according to 2-fold dilution, and 10 concentrations of each drug starting from 8 μg/mL were tested.
# (§5) […]; 20 mL was aspirated and added to a petri dish consistent with the mark, and then 20 mL of MHA culture medium was added to the rest of the drug-containing culture medium, mixed evenly, that is, the 2-fold diluted drug-containing culture medium; 20 mL was aspirated and added to the petri dish consistent with the mark, and then diluted to the 10th concentration and the […] respectively by repeating the above-mentioned steps, and then poured into the petri dish.
# (§6) 4 bacterial control petri dishes without drug were prepared at the same time as a control.
# (§7) The positioning needle and the inoculation needle were installed according to the order of placement of the colony on the inoculation plate. After inoculation, a bacterial solution circle was formed on the petri dish. After the bacterial solution was absorbed by the agar, the petri dish was placed in an incubator at 37° C. for overnight incubation (16-20 hours), and then taken out.
# (§8) The minimum inhibitory concentrations of the compounds against the CRE and CSE strains were determined by the solid dilution method, and the results are shown in Tables 3 and 4.
# [1] = system: Enterobacter cloacae 14653; experiment: MIC, solid dilution method; format: cell-based
# Experimental: as §1, §2, §4, §6, §7
# [2] = system: Enterobacter cloacae 11699; experiment: MIC, solid dilution method; format: cell-based
# Experimental: as §1, §2, §4, §6, §7
# [3] = system: Enterobacter cloacae 11090; experiment: MIC, solid dilution method; format: cell-based
# Experimental: as §1, §2, §4, §6, §7
# E. ae 14186 = experiment: MIC, solid dilution method; format: cell-based, Enterobacter aerogenes; conditions: Klebsiella aerogenes, 14186
# Experimental: as §1, §2, §3, §4, §5, §6, §7, §8
# [4] = system: Acinetobacter baumannii 6383; experiment: MIC, solid dilution method; format: cell-based
# Experimental: (§9) CRE Acinetobacter baumannii 8476, 6383, a total of 2 strains; CRE Serratia marcescens 14541, a total of 1 strain; all collected in the Department of Infectious Diseases, West China Hospital, Chengdu, Sichuan Province, and kept in our laboratory.
# as §1, §2, §3, §4, §5, §6, §7, §8
# [5] = system: Acinetobacter baumannii 8476; experiment: MIC, solid dilution method; format: cell-based
# Experimental: as §9, §1, §2, §3, §4, §5, §6, §7, §8
# [6] = system: Serratia marcescens 14541; experiment: MIC, solid dilution method; format: cell-based; conditions: 14541
# Experimental: as §9, §1, §2, §3, §4, §5, §6, §7, §8
# [7] = system: Escherichia coli BAA-2452; experiment: MIC, solid dilution method; format: cell-based
# Experimental: (§10) (1) Standard strains: Escherichia coli BAA-2452, Escherichia coli ATCC25922, Klebsiella pneumoniae BAA-1705; all purchased from ATCC.
# as §1, §2, §3, §4, §5, §6, §7, §8
# [8] = system: Klebsiella pneumoniae BAA-1705; experiment: MIC, solid dilution method; format: cell-based
# Experimental: as §10, §1, §2, §3, §4, §5, §6, §7, §8
# [9] = system: Escherichia coli ATCC25922; experiment: MIC, solid dilution method; format: cell-based
# Experimental: as §10, §1, §2, §3, §4, §5, §6, §7, §8
# E. coli 11256 = experiment: MIC, solid dilution method; format: cell-based; conditions: Escherichia coli
# Experimental: as §1, §2, §3, §4, §5, §6, §7, §8
# Klebsiella oxytoca 12391 = experiment: MIC, solid dilution method; format: cell-based
# Experimental: as §1, §2, §3, §4, §5, §6, §7, §8
# Klebsiella oxytoca 14153 = experiment: MIC, solid dilution method; format: cell-based
# Experimental: as §1, §2, §3, §4, §5, §6, §7, §8
# Klebsiella oxytoca 14151 = experiment: MIC, solid dilution method; format: cell-based
# Experimental: as §1, §2, §3, §4, §5, §6, §7, §8
# Klebsiella oxytoca 6777 = experiment: MIC, solid dilution method; format: cell-based
# Experimental: as §1, §2, §3, §4, §5, §6, §7, §8
# Escherichia coli 13897 = experiment: MIC, solid dilution method; format: cell-based
# Experimental: as §1, §2, §3, §4, §5, §6, §7, §8
# Escherichia coli 14828 = experiment: MIC, solid dilution method; format: cell-based
# Experimental: as §1, §2, §3, §4, §5, §6, §7, §8
# Escherichia coli 11119 = experiment: MIC, solid dilution method; format: cell-based
# Experimental: as §1, §2, §3, §4, §5, §6, §7, §8
# [10] = system: Enterobacter aerogenes 8193; experiment: MIC, solid dilution method; format: cell-based; conditions: Klebsiella aerogenes
# Experimental: CRE Enterobacter aerogenes 8193, a total of 1 strain;
# as §1, §2, §3, §4, §5, §6, §7, §8
# [11] = system: Klebsiella pneumoniae 13249; experiment: MIC, solid dilution method; format: cell-based
# Experimental: (§11) (2) Clinical isolated strains: CRE Klebsiella pneumoniae 5846, 11544, 12559, 13249 and CSE Klebsiella pneumoniae 8733, a total of 5 strains;
# as §1, §2, §3, §4, §5, §6, §7, §8
# [12] = system: Klebsiella pneumoniae 5846; experiment: MIC, solid dilution method; format: cell-based
# Experimental: as §11, §1, §2, §3, §4, §5, §6, §7, §8
# [13] = system: Klebsiella pneumoniae 11544; experiment: MIC, solid dilution method; format: cell-based
# Experimental: as §11, §1, §2, §3, §4, §5, §6, §7, §8
# [14] = system: Klebsiella pneumoniae 8733; experiment: MIC, solid dilution method; format: cell-based
# Experimental: as §11, §1, §2, §3, §4, §5, §6, §7, §8
# [15] = system: Klebsiella pneumoniae 12559; experiment: MIC, solid dilution method; format: cell-based
# Experimental: as §11, §1, §2, §3, §4, §5, §6, §7, §8
# [16] = system: Citrobacter freundii 7646; experiment: MIC, solid dilution method; format: cell-based
# Experimental: (§12) CRE Citrobacter freundii 9434, 9484 and CSE Citrobacter freundii 7646, a total of 3 strains;
# as §1, §2, §3, §4, §5, §6, §7, §8
# [17] = system: Citrobacter freundii 9484; experiment: MIC, solid dilution method; format: cell-based
# Experimental: as §12, §1, §2, §3, §4, §5, §6, §7, §8
# [18] = system: Citrobacter freundii 9434; experiment: MIC, solid dilution method; format: cell-based; conditions: 9434
# Experimental: as §12, §1, §2, §3, §4, §5, §6, §7, §8
structure (smiles),measurement,setting,value
CC1(C)[C@H](NC(=O)/C(=N\O[C@@H](COc2ccc3c(c2)CN(C(=N)N(CCN)CCN)C3)C(=O)O)c2csc(N)n2)C(=O)N1OS(=O)(=O)O [Compound 45],MIC50,16 clinical CRE strains,4 µg/mL
same,MIC90,16 clinical CRE strains,> 8 µg/mL
same,MIC,[1]; 14653,2 µg/mL
same,MIC,[2]; 11699,0.25 µg/mL
same,MIC,[3]; 11090,4 µg/mL
same,MIC,E. ae 14186,2 µg/mL
same,MIC,[4]; 6383,> 8 µg/mL
same,MIC,[5]; 8476,> 8 µg/mL
same,MIC,[6],> 8 µg/mL
same,MIC,[7]; BAA2452,1 µg/mL
same,MIC,[8]; BAA1705,2 µg/mL
same,MIC,[9]; ATCC25922,0.125 µg/mL
same,MIC,E. coli 11256; 11256,0.25 µg/mL
same,MIC,Klebsiella oxytoca 12391; 12391,1 µg/mL
same,MIC,Klebsiella oxytoca 14153; 14153,2 µg/mL
same,MIC,Klebsiella oxytoca 14151; 14151,2 µg/mL
same,MIC,Klebsiella oxytoca 6777; 6777,2 µg/mL
same,MIC,Escherichia coli 13897; 13897,0.5 µg/mL
same,MIC,Escherichia coli 14828; 14828,2 µg/mL
same,MIC,Escherichia coli 11119; 11119,8 µg/mL
same,MIC,[10]; 8193,4 µg/mL
same,MIC,[11]; 13249,> 8 µg/mL
same,MIC,[12]; 5846,1 µg/mL
same,MIC,[13]; 11544,> 8 µg/mL
same,MIC,[14]; 8733,0.5 µg/mL
same,MIC,[15]; 12559,0.5 µg/mL
same,MIC,[16]; 7646,1 µg/mL
same,MIC,[17]; 9484,0.25 µg/mL
same,MIC,[18],2 µg/mL
"C[C@@H](O)[C@H]1C(=O)N2C(C(=O)O)=C(S[C@@H]3CN[C@H](C(=O)N(C)C)C3)[C@H](C)[C@H]12 [Meropenem, reference compound]",MIC,"[1]; E. cl 14653, CRE clinical isolate, MHA agar, 37° C., 16-20 hours, read-out: MIC",64 µg/mL
same,MIC,"[2]; E. cl 11699, CSE clinical isolate, MHA agar, 37° C., 16-20 hours, read-out: MIC",< 0.015 µg/mL
same,MIC,"[3]; E. cl 11090, CRE clinical isolate, MHA agar, 37° C., 16-20 hours, read-out: MIC",0.5 µg/mL
same,MIC,E. ae 14186,0.125 µg/mL
same,MIC,"[4]; A.B 6383, CRE clinical isolate, MHA agar, 37° C., 16-20 hours, read-out: MIC",64 µg/mL
same,MIC,"[5]; A.B 8476, CRE clinical isolate, MHA agar, 37° C., 16-20 hours, read-out: MIC",64 µg/mL
same,MIC,[6],128 µg/mL
same,MIC,"[7]; BAA2452, E. coli BAA-2452, standard strain, MHA agar, 37° C., 16-20 hours, read-out: MIC",16 µg/mL
same,MIC,"[8]; BAA1705, K.p BAA-1705, standard strain, MHA agar, 37° C., 16-20 hours, read-out: MIC",16 µg/mL
same,MIC,"[9]; E. coli ATCC25922, standard strain, MHA agar, 37° C., 16-20 hours, read-out: MIC",< 0.015 µg/mL
same,MIC,"E. coli 11256; E. coli 11256, MHA agar, 37° C., 16-20 hours, read-out: MIC",< 0.015 µg/mL
same,MIC,"Klebsiella oxytoca 12391; K. ox 12391, CRE clinical isolate, MHA agar, 37° C., 16-20 hours, read-out: MIC",2 µg/mL
same,MIC,"Klebsiella oxytoca 14153; K. ox 14153, CRE clinical isolate, MHA agar, 37° C., 16-20 hours, read-out: MIC",32 µg/mL
same,MIC,"Klebsiella oxytoca 14151; K. ox 14151, CRE clinical isolate, MHA agar, 37° C., 16-20 hours, read-out: MIC",16 µg/mL
same,MIC,"Klebsiella oxytoca 6777; K. ox 6777, CRE clinical isolate, MHA agar, 37° C., 16-20 hours, read-out: MIC",16 µg/mL
same,MIC,"Escherichia coli 13897; E. coli 13897, CRE clinical isolate, MHA agar, 37° C., 16-20 hours, read-out: MIC",4 µg/mL
same,MIC,"Escherichia coli 14828; E. coli 14828, CRE clinical isolate, MHA agar, 37° C., 16-20 hours, read-out: MIC",8 µg/mL
same,MIC,"Escherichia coli 11119; E. coli 11119, CRE clinical isolate, MHA agar, 37° C., 16-20 hours, read-out: MIC",16 µg/mL
same,MIC,"[10]; E. ae 8193, CRE clinical isolate, MHA agar, 37° C., 16-20 hours, read-out: MIC",16 µg/mL
same,MIC,"[11]; K.p 13249, CRE clinical isolate, MHA agar, 37° C., 16-20 hours, read-out: MIC",64 µg/mL
same,MIC,"[12]; K.p 5846, CRE clinical isolate, MHA agar, 37° C., 16-20 hours, read-out: MIC",8 µg/mL
same,MIC,"[13]; K.p 11544, CRE clinical isolate, MHA agar, 37° C., 16-20 hours, read-out: MIC",32 µg/mL
same,MIC,"[14]; K.p 8733, CSE clinical isolate, MHA agar, 37° C., 16-20 hours, read-out: MIC",0.03 µg/mL
same,MIC,"[15]; K.p 12559, CRE clinical isolate, MHA agar, 37° C., 16-20 hours, read-out: MIC",4 µg/mL
same,MIC,"[16]; C.f 7646, CSE clinical isolate, MHA agar, 37° C., 16-20 hours, read-out: MIC",< 0.015 µg/mL
same,MIC,"[17]; C.f 9484, CRE clinical isolate, MHA agar, 37° C., 16-20 hours, read-out: MIC",0.06 µg/mL
same,MIC,[18],> 128 µg/mL
